Measurements from US20100190717A1, “USE OF MELANIN CONCENTRATING HORMONE AND MET-ENKEPHALIN AS THERAPEUTIC AGENTS” (priority 2007, published 2010).
Ends that are not written are not given here.

Columns and labels:
HCMV strain AD169 = assay: HCMV plaque formation assay in MRC-5 cells; conditions: for inhibition of HCMV plaque formation compared to the virus control: 10 micrograms per ml, 7-10 days
[1] = system: Tumor Necrosis Factor-α (TNF-α) in spleen cells; assay: Th1/Th2 cytokine profiling assay: TNF-α; assay type: cell-based, Balb/c mice; conditions: 10 micrograms per ml; Ovalbumin-restimulated spleen cells, 72 hours
[2] = system: Interleukin-2 (IL-2) in spleen cells; assay: Th1/Th2 cytokine profiling assay: IL-2; assay type: cell-based, Balb/c mice; conditions: 10 micrograms per ml; Ovalbumin-restimulated spleen cells, 72 hours
Human A549 cells = assay: Apoptosis prevention assay (C2 ceramide, Annexin-5); assay type: cell-based; conditions: 10 micrograms per ml, A549, 30 min pretreatment
Description: Human A549 cells (carcinomic human alveolar basal epithelial cells) were utilized in the experiments employing the Annexin-5 apoptosis assay. […] A549 cells were pretreated for 30 min with test peptides—10 micrograms per ml—followed by the exposure to C2 ceramide.

[3] = system: Human Peripheral Blood Mononuclear Cells (PBMC), B cell proliferation; assay: B cell proliferation assay (SAC plus Interleukin-2 stimulated PBMC, 3H-thymidine); assay type: cell-based; conditions: 10 micrograms per ml
Description: Human Peripheral Blood Mononuclear Cells (PBMC) were obtained from normal human donors. The B cell proliferation was induced by stimulation of the cells with the B cell mitogen Staphylococcus aureus Cowans I (SAC) plus Interleukin-2, either in the absence (positive proliferation control), or in the presence of test peptides—10 micrograms per ml—to examine their effects on the B cell response. 10^5/well PBMC were plated in 96-well microtiter plates and assayed in duplicate with the peptides. […] At the end of incubation time, the plates were harvested and the cells counted by liquid scintillation for the incorporation of ^3H-thymidine as a measure of B cell proliferation.

[4] = system: Interleukin-4 (IL-4) in spleen cells; assay: Th1/Th2 cytokine profiling assay: IL-4; assay type: cell-based, Balb/c mice; conditions: 10 micrograms per ml; Ovalbumin-restimulated spleen cells, 72 hours
HUVEC = assay: Endothelial tube formation assay; assay type: cell-based, human; conditions: 10 micrograms per ml, 20 hours
Text: Positive control was vehicle only.

[5] = system: Interleukin-5 (IL-5) in spleen cells; assay: Th1/Th2 cytokine profiling assay: IL-5; assay type: cell-based, Balb/c mice; conditions: 10 micrograms per ml; Ovalbumin-restimulated spleen cells, 72 hours
Description: The Balb/c mice (originated in 1923, it is a popular strain and is used in many different research disciplines. Also classified as an inbred from the production of 20 or more successive brother-sister matings, the Balb/c mouse is albino and small in size) were immunized on Days 1, 15, and 29 with Ovalbumin (Ovalbumin is the main protein found in egg white, commonly used to stimulate an immunological reaction in test animals) in PBS (5 micrograms/injection). On day 50, spleens of the mice were harvested (3 weeks after last boost with Ovalbumin). Cells were cultured (2×10^5/well in triplicate) and incubated with culture medium or test peptides—10 micrograms per ml—for 30 min. Thereafter, additional Ovalbumin was added to the cells at 10 micrograms/ml for in vitro restimulation of the cells. 72 hours later, cell supernatants were harvested and assayed using the Becton Dickinson Mouse Th1/Th2 Cytokine CBA Kit. This kit can be used to measure Interleukin-2 (IL-2), Interleukin-4 (IL-4), Interleukin-5 (IL-5), Interferon-γ (IFN-γ), and Tumor Necrosis Factor-α (TNF-α) protein levels in a single sample. The kit performance has been optimized for analysis of physiologically relevant concentrations (μg/ml levels) of specific cytokine proteins in tissue culture supernatants and serum samples.

[6] = system: Interferon-γ (IFN-γ) in spleen cells; assay: Th1/Th2 cytokine profiling assay: IFN-γ; assay type: cell-based, Balb/c mice; conditions: 10 micrograms per ml; Ovalbumin-restimulated spleen cells, 72 hours
[7] = system: LPS-induced TNF-alpha production in human macrophages; assay: TNF alpha production assay (LPS-stimulated macrophages, ELISA); assay type: cell-based; conditions: 10 micrograms per ml; LPS 200 ng/ml, overnight
Text: Not stimulated macrophages served as negative background control.

[8] = system: hepatitis B virus (HBV) ayw strain; assay: HBV assay in HepG2-2.2.15 cells (TaqMan PCR of secreted HBV DNA); assay type: cell-based; conditions: 10 micrograms per ml; HepG2-2.2.15, six days
[9] = system: Primary Human endothelial cells (HUVEC); assay: Endothelial cell migration assay; assay type: cell-based; conditions: 10 micrograms per ml, 22 hours
Description: Thereafter, designated concentration of testing peptides—10 micrograms per ml—was added in duplicate wells.

Tyr-Gly-Gly-Phe-Met-OH [peptide 2]
inhibition of HCMV plaque formation compared to the virus control (HCMV strain AD169): did not inhibit
TNF-a spleen cells; TH1 response (% of control) [1]: 89.3 % of control
IL-2 spleen cells (% of control) [2]: 86.3 % of control
prevention (reduction) of the ceramide-induced apoptosis on human lung cells (Human A549 cells): 17.4%
decrease of the proliferation of specifically stimulated human B-cells [3]: 12.0%
IL-4 spleen cells; TH2 response (% of control) [4]: 100.4 % of control
inhibition of the tube formation of endothelial cells (HUVEC): 25%
IL-5 spleen cells; TH2 response (% of control) [5]: 67.5 % of control
IFNγ spleen cells; TH1 response (% of control) [6]: 64.9 % of control
inhibition of the LPS-induced TNF-alpha production in human macrophages [7]: 28.4%
inhibition of HBV replication on tested liver cells [8]: no effect

Asp-Phe-Asp-Met-Leu-Arg-Cys-Met-Leu-Gly-Arg-Val-Tyr-Arg-Pro-Cys-Trp-Gln-Val-OH (DFDMLRCMLGRVYRPCWQV-OH; ends and bridges not checked) [peptide 1, melanin concentrating hormone (MCH), commercially available peptide]
inhibition of HCMV plaque formation compared to the virus control (HCMV strain AD169): did not inhibit
TNF-a spleen cells; TH1 response (% of control) [1]: 92.1 % of control
IL-2 spleen cells (% of control) [2]: 42.3 % of control
prevention (reduction) of the ceramide-induced apoptosis on human lung cells (Human A549 cells): did not show any reducing or increasing effect
decrease of the proliferation of specifically stimulated human B-cells [3]: 20.9%
inhibition of the migration of human endothelial cells [9]: 39%
IL-4 spleen cells; TH2 response (% of control) [4]: 85.9 % of control
inhibition of the tube formation of endothelial cells (HUVEC): 19%
IL-5 spleen cells; TH2 response (% of control) [5]: 78.8 % of control
IFNγ spleen cells; TH1 response (% of control) [6]: 90.4 % of control
inhibition of the LPS-induced TNF-alpha production in human macrophages [7]: 20.6%
inhibition of HBV replication on tested liver cells [8]: no effect

Nc1nc(O)c2ncn(COC(CO)CO)c2n1 [Ganciclovir, reference compound]
antiviral activity of positive control compound (HCMV) (HCMV strain AD169; positive control): expected levels of antiviral activity
